Active and inactive are the calls of the source. The rule behind the calls is not given here.
Legend:
MDA-MB-231 [1] = experiment: Antitumor activity against human MDA-MB-231 cells xenografted in immunodeficient BALB/c mouse assessed as inhibition of tumor cell proliferation at 20 mg/kg,ip for 21 days consecutively every day by Ki67 staining based immunohistochemical analysis; type: functional, organism-based; conditions: time 21.0 day
MDA-MB-231 [2] = experiment: Induction of ferroptosis in human MDA-MB-231 cells with assessed as decrease in xCT protein expression level at 5 to 20 nM incubated for 8 hrs by Western blot analysis; type: functional, cell-based; conditions: dose 5-20 nM
MDA-MB-231 [3] = experiment: Antiproliferative activity against human MDA-MB-231 cells assessed as inhibition of cell viability at 1 uM incubated for 72 hrs by MTT assay; type: functional, cell-based
MDA-MB-231 [4] = experiment: Induction of ferroptosis-mediated morphological changes in human MDA-MB-231 cells assessed as round and vacuolated cells at 20 nM incubated for 6 hrs by TEM analysis; type: functional, cell-based
HT-29 = experiment: Antiproliferative activity against human HT-29 cells assessed as inhibition of cell viability at 1 uM incubated for 72 hrs by MTT assay; type: functional, cell-based
MDA-MB-231 [5] = experiment: Induction of ferroptosis-mediated morphological changes in human MDA-MB-231 cells assessed as ruptured mitochondria at 20 nM incubated for 6 hrs by TEM analysis; type: functional, cell-based
MDA-MB-231 [6] = experiment: Antitumor activity against human MDA-MB-231 cells xenografted in immunodeficient BALB/c mouse assessed as tumor growth inhibition at 10 mg/kg,ip for 21 days consecutively every day; type: functional; conditions: MDA-MB-231, 504 h, time 21 day, read-out: TGI
MDA-MB-231 [7] = experiment: Induction of ferroptosis in human MDA-MB-231 cells assessed as increase in intracellular lipid peroxidase by measuring decrease in red fluorescence intensity at 5 to 20 nM incubated for 8 hrs by C11-BODIPY-581/591 staining based confocal laser microscopy; type: functional, cell-based; conditions: dose 5-20 nM
MDA-MB-231 [8] = experiment: Inhibition of colony formation in human MDA-MB-231 cells at 20 nM incubated for 14 days by crystal violet staining based assay; type: functional, cell-based; conditions: time 14.0 day
MDA-MB-231 [9] = experiment: Induction of ferroptosis in human MDA-MB-231 cells with assessed as change in GPX4 mRNA expression level at 5 to 20 nM incubated for 8 hrs by qRT-PCR analysis; type: functional, cell-based; conditions: dose 5-20 nM
BT-549 = experiment: Antiproliferative activity against human BT-549 cells assessed as inhibition of cell viability at 1 uM incubated for 72 hrs by MTT assay; type: functional, cell-based
MDA-MB-231 [10] = experiment: Antitumor activity against human MDA-MB-231 cells xenografted in immunodeficient BALB/c mouse assessed as tumor growth inhibition at 20 mg/kg,ip for 21 days consecutively every day; type: functional; conditions: MDA-MB-231, 504 h, time 21 day, read-out: TGI
MDA-MB-231 [11] = experiment: Induction of ferroptosis in human MDA-MB-231 cells assessed as induction of lipid peroxidase accumulation at 5 to 20 nM incubated for 8 hrs by C11-BODIPY-581/591 staining based flow cytometry analysis; type: functional, cell-based; conditions: dose 5-20 nM
MDA-MB-231 [12] = experiment: Induction of ferroptosis in human MDA-MB-231 cells assessed as cell viability incubated for 72 hrs in presence of apoptosis inhibitor, Z-VAD-FMK by MTT assay; type: functional, cell-based; conditions: MDA-MB-231, 72 h
MDA-MB-231 [13] = experiment: Induction of ferroptosis in human MDA-MB-231 cells with assessed as increase in ACSL4 protein expression level at 5 to 20 nM incubated for 8 hrs by Western blot analysis; type: functional, cell-based; conditions: dose 5-20 nM
MDA-MB-231 [14] = experiment: Antiproliferative activity against human MDA-MB-231 cells assessed as inhibition of cell viability incubated for 72 hrs by MTT assay; type: functional, cell-based; conditions: MDA-MB-231, 72 h
[15] = Toxicity in immunodeficient BALB/c mouse xenografted with human MDA-MB-231 cells assessed as morphological changes in spleen at 20 mg/kg, ip for 21 days by H and E staining based microscopy; type: organism-based; conditions: in vivo, 504 h, time 21 day
MDA-MB-231 [16] = experiment: Induction of ferroptosis in human MDA-MB-231 cells assessed as cell viability incubated for 72 hrs in presence of N-acetyl-L-cysteine by MTT assay; type: functional, cell-based; conditions: MDA-MB-231, 72 h
U-87 MG = experiment: Antiproliferative activity against human U87 cells assessed as inhibition of cell viability at 1 uM incubated for 72 hrs by MTT assay; type: functional, cell-based; conditions: U-87MG ATCC
MDA-MB-231 [17] = experiment: Induction of ferroptosis-mediated morphological changes in human MDA-MB-231 cells assessed as broken outer membrane at 20 nM incubated for 6 hrs by TEM analysis; type: functional, cell-based
MCF7 = experiment: Antiproliferative activity against human MCF7 cells assessed as inhibition of cell viability at 1 uM incubated for 72 hrs by MTT assay; type: functional, cell-based
MDA-MB-231 [18] = experiment: Induction of ferroptosis in human MDA-MB-231 cells assessed as increase in intracellular lipid peroxidase by measuring increase in green fluorescence intensity at 5 to 20 nM incubated for 8 hrs by C11-BODIPY-581/591 staining based confocal laser microscopy; type: functional, cell-based; conditions: dose 5-20 nM
MDA-MB-231 [19] = experiment: Induction of ferroptosis in human MDA-MB-231 cells assessed as cell viability at 1 uM incubated for 72 hrs in presence of autophagy inhibitor, 3-MA by MTT assay; type: functional, cell-based
MDA-MB-231 [20] = experiment: Induction of ferroptosis in human MDA-MB-231 cells assessed as cell viability at 1 uM incubated for 72 hrs in presence of N-acetyl-L-cysteine by MTT assay; type: functional, cell-based
HeLa = experiment: Antiproliferative activity against human HeLa cells assessed as inhibition of cell viability at 1 uM incubated for 72 hrs by MTT assay; type: functional, cell-based
[21] = Toxicity in immunodeficient BALB/c mouse xenografted with human MDA-MB-231 cells assessed as morphological changes in kidney at 20 mg/kg, ip for 21 days by H and E staining based microscopy; type: organism-based; conditions: in vivo, 504 h, time 21 day
[22] = Metabolic stability in rat plasma at 1 uM and measured upto 24 hrs by LC-MS/MS analysis; type: ADME, cell-free
MDA-MB-231 [23] = experiment: Induction of ferroptosis-mediated antitumor activity against human MDA-MB-231 cells xenografted in immunodeficient BALB/C mouse assessed as reduction in GPX4 level in tumor tissue at 5 to 20 mg/kg,ip for 21 days by Western blot analysis; type: functional, organism-based; conditions: dose 5-20 mg/kg, time 21.0 day
[24] = Toxicity in immunodeficient BALB/c mouse xenografted with human MDA-MB-231 cells assessed as morphological changes in heart at 20 mg/kg, ip for 21 days by H and E staining based microscopy; type: organism-based; conditions: in vivo, 504 h, time 21 day
[25] = Toxicity in immunodeficient BALB/c mouse assessed as change in ALT level at 20 mg/kg, ip for 14 days by biochemical analysis; type: organism-based; conditions: in vivo, 336 h, time 14 day
MDA-MB-231 [26] = experiment: Induction of ferroptosis in human MDA-MB-231 cells with assessed as decrease in GPX4 protein expression level at 5 to 20 nM incubated for 8 hrs by Western blot analysis; type: functional, cell-based; conditions: dose 5-20 nM
MDA-MB-468 = experiment: Antiproliferative activity against human MDA-MB-468 cells assessed as inhibition of cell viability incubated for 72 hrs by CCK-8 assay; type: functional, cell-based; conditions: MDA-MB-468, 72 h
MDA-MB-231 [27] = experiment: Induction of ferroptosis-mediated morphological changes in human MDA-MB-231 cells assessed as smaller mitochondrial volume at 20 nM incubated for 6 hrs by TEM analysis; type: functional, cell-based

SMILES | Activity (MDA-MB-231 [1]) | Activity (MDA-MB-231 [2]) | Activity (MDA-MB-231 [3]) | Activity (MDA-MB-231 [4]) | Activity (HT-29) | Activity (MDA-MB-231 [5]) | inhibition in vivo at 10 mg/kg (MDA-MB-231 [6]) [%] | Activity (MDA-MB-231 [7]) | inhibition (MDA-MB-231 [8]) | Activity (MDA-MB-231 [9]) | Activity (BT-549) | inhibition in vivo at 20 mg/kg (MDA-MB-231 [10]) [%] | Activity (MDA-MB-231 [11]) | IC50 (MDA-MB-231 [12]) [nM] | Activity (MDA-MB-231 [13]) | IC50 (MDA-MB-231 [14]) [nM] | Activity [15] | IC50 (MDA-MB-231 [16]) [nM] | Activity (U-87 MG) | Activity (MDA-MB-231 [17]) | also measured
COc1cc(N(C(=O)CBr)c2ccc3c(c2)OCCO3)cc(OC)c1F | Active | inactive | Active | Active | inactive | Active | 47.9 | Dose-Dependent Effect | Active | inactive | Active | 71.7 | Dose-Dependent Effect | 30 | Active | 8 | Non-Toxic | > 20000 | inactive | Active | Activity (MCF7): inactive; Activity (MDA-MB-231 [18]): Dose-Dependent Effect; Activity (MDA-MB-231 [19]): inactive; Activity (MDA-MB-231 [20]): Active; Activity (HeLa): inactive; Activity [21]: Non-Toxic; Stability [22]: Stable; Activity (MDA-MB-231 [23]): Active; Activity [24]: Non-Toxic; Activity [25]: Toxic; Activity (MDA-MB-231 [26]): Active; IC50 (MDA-MB-468): 12 nM; Activity (MDA-MB-231 [27]): Active
COc1cc(N(C(=O)CCl)c2ccc3c(c2)OCCO3)cc(OC)c1F | Active | inactive | Active | Active | inactive | Active | 73.1 | Dose-Dependent Effect | Active | inactive | Active | 81 | Dose-Dependent Effect | 31 | Active | 12 | Non-Toxic | > 20000 | inactive | Active | Activity (MCF7): Active; Activity (MDA-MB-231 [18]): Dose-Dependent Effect; Activity (MDA-MB-231 [19]): inactive; Activity (MDA-MB-231 [20]): Active; Activity (HeLa): inactive; Activity [21]: Non-Toxic; Stability [22]: Stable; Activity (MDA-MB-231 [23]): Active; Activity [24]: Non-Toxic; Activity [25]: Toxic; Activity (MDA-MB-231 [26]): Active; IC50 (MDA-MB-468): 10 nM; Activity (MDA-MB-231 [27]): Active

— ChEMBL document CHEMBL5346969 (J Med Chem, 2023)
